In brackets after ≈: the same amount, converted by molar mass.
Assays:
Escherichia coli = assay: Antibacterial activity against Escherichia coli ATCC 49696 after 20 hrs by microdilution assay; type: functional; conditions: ATCC 49696, 20 h
Staphylococcus aureus [1] = assay: Antibacterial activity against methicillin-sensitive Staphylococcus aureus ATCC 13150 after 20 hrs by microdilution assay; type: functional
[2] = Toxicity in sheep erythrocytes assessed as hemolysis at 100 uM after 90 mins; type: cell-based, Ovis aries, Erythrocyte; conditions: read-out: Activity
Staphylococcus aureus [3] = assay: Antibacterial activity against Staphylococcus aureus; type: functional
Staphylococcus aureus [4] = assay: Antibacterial activity against methicillin-resistant Staphylococcus aureus; type: functional
[5] = Toxicity in sheep erythrocytes assessed as hemolysis at 25 uM after 90 mins; type: cell-based, Ovis aries, Erythrocyte; conditions: read-out: Activity
[6] = Toxicity in sheep erythrocytes assessed as hemolysis at 300 uM after 90 mins; type: cell-based, Ovis aries, Erythrocyte; conditions: read-out: Activity
[7] = Staphylococcus aureus, ATCC 13150, 20 h, read-out: MIC

Compound | MIC (Escherichia coli) | MIC (Staphylococcus aureus [1]; [7]) | further results
COc1ccc(C(=O)/C=C/c2ccc(Cl)cc2)c(OC)c1 | > 100 µM | > 100 µM | –
CN1CCC(c2ccc(O)c(C(=O)/C=C/c3ccccc3Cl)c2)CC1 | > 100 µM | 25 µM (≈ 8.9 µg/mL) | hemolysis at 1.5 h, 100 µM [2]: 14.8%
COc1cc(OC)c(C2CCN(C)CC2)cc1C(=O)/C=C/c1ccc(C)cc1 | > 100 µM | > 100 µM | –
COc1ccccc1/C=C/C(=O)c1cc(C2CCN(C)CC2)c(OC)cc1OC | > 100 µM | > 100 µM | –
COc1ccc(/C=C/C(=O)c2cc(C3CCN(C)CC3)c(OC)cc2OC)cc1 | > 100 µM | > 100 µM | –
COc1cc(OC)c(C2CCN(C)CC2)cc1C(=O)/C=C/c1ccccc1F | > 100 µM | > 100 µM | –
COc1cc(OC)c(C2CCN(C)CC2)cc1C(=O)/C=C/c1ccc(C(F)(F)F)cc1 | > 100 µM | 50 µM (≈ 21.7 µg/mL) | –
COc1cc(OC)c(C2CCN(C)CC2)c(O)c1C(=O)/C=C/c1ccc(Cl)cc1 | > 100 µM | 25 µM (≈ 10.4 µg/mL) | hemolysis at 1.5 h, 100 µM [2]: 5.5%
COc1ccc(C(=O)/C=C/c2ccccn2)c(OC)c1 | > 100 µM | > 100 µM | –
COc1ccc(C(=O)/C=C/c2ccc(N3CCN(C)CC3)cc2)c(OC)c1 | > 100 µM | > 100 µM | –
COc1cc(OC)c(C2CCN(C)CC2)c(O)c1C(=O)/C=C/c1ccccc1 | > 100 µM | > 100 µM | –
COc1cc(OC)c(C2CCN(C)CC2)c(O)c1C(=O)/C=C/c1ccc(C)cc1 | > 100 µM | 6.25 µM (≈ 2.47 µg/mL) | hemolysis at 1.5 h, 100 µM [2]: 6.7%
COc1cc(OC)c(C2CCN(C)CC2)c(O)c1C(=O)/C=C/c1cccc(Cl)c1 | > 100 µM | 6.25 µM (≈ 2.6 µg/mL) | hemolysis at 1.5 h, 100 µM [2]: 6.5%
COc1cc(OC)c(C2CCN(C)CC2)c(O)c1C(=O)/C=C/c1ccc(C#N)cc1 | > 100 µM | > 100 µM | –
COc1cc(OC)c(C2CCN(C)CC2)cc1C(=O)/C=C/c1ccc(Cl)cc1 | > 100 µM | > 100 µM | –
COc1cc(OC)c(C2CCN(C)CC2)cc1C(=O)/C=C/c1cccnc1 | > 100 µM | > 100 µM | –
COc1cc(OC)c(N2CCC(N3CCCCC3)CC2)cc1C(=O)/C=C/c1ccccc1Cl | > 100 µM | > 100 µM | –
COc1cc(OC)c(C2CCN(C)CC2)cc1C(=O)/C=C/c1ccccn1 | > 100 µM | > 100 µM | –
COc1ccc(C2CCN(C)CC2)cc1C(=O)/C=C/c1ccc(Cl)cc1 | > 100 µM | > 100 µM | –
COc1ccc(C2CCN(C)CC2)cc1C(=O)/C=C/c1ccccc1 | > 100 µM | 100 µM (≈ 33.5 µg/mL) | –
CCN1CCC(c2cc(C(=O)/C=C/c3ccccc3Cl)c(OC)cc2OC)CC1 | > 100 µM | > 100 µM | –

Compound | MIC (Escherichia coli) | MIC (Staphylococcus aureus [1]; [7]) | further results
CCN1CCC(c2cc(C(=O)/C=C/c3ccccc3)c(OC)cc2OC)CC1 | > 100 µM | > 100 µM | –
CCN1CCC(c2cc(C(=O)/C=C/c3ccc(Cl)cc3)c(OC)cc2OC)CC1 | > 100 µM | 50 µM (≈ 20.7 µg/mL) | –
CCN1CCC(c2cc(C(=O)/C=C/c3ccncc3)c(OC)cc2OC)CC1 | > 100 µM | > 100 µM | –
COc1cc(OC)c(C2CCN(C)CC2)cc1C(=O)/C=C/c1ccc(N2CCN(C)CC2)cc1 | > 100 µM | > 100 µM | –
COc1cc(O)c(C(=O)/C=C/c2ccccc2Cl)cc1C | > 100 µM | > 100 µM | –
COc1cc(OC)c(C2CCN(C)CC2)cc1C(=O)/C=C/c1ccccc1C | > 100 µM | > 100 µM | –
COc1cc(OC)c(C2CCN(C)CC2)c(O)c1C(=O)/C=C/c1ccccc1C | > 100 µM | 50 µM (≈ 19.8 µg/mL) | –
COc1cc(OC)c(C2CCN(C)CC2)c(O)c1C(=O)/C=C/c1ccc(N2CCN(C)CC2)cc1 | > 100 µM | > 100 µM | –
COc1cc(OC)c(C2CCN(C)CC2)c(O)c1C(=O)/C=C/c1ccc(F)cc1 | > 100 µM | > 100 µM | –
COc1ccc(/C=C/C(=O)c2c(OC)cc(OC)c(C3CCN(C)CC3)c2O)c(OC)c1 | > 100 µM | > 100 µM | –
COc1ccc(/C=C/C(=O)c2cccc(N3CCNCC3)c2)c(OC)c1 | > 100 µM | 100 µM (≈ 35.2 µg/mL) | –
O=C(O)c1ccc(C(=O)/C=C/c2cc(Br)cc(Br)c2)cc1 | – | – | MIC (Staphylococcus aureus [3]): 2 µM (≈ 0.82 µg/mL)
O=C(/C=C/c1ccccc1Cl)c1cccc(N2CCCCC2)c1 | > 100 µM | > 100 µM | –
O=C(/C=C/c1ccc(Cl)cc1)c1cccc(N2CCCCC2)c1 | > 100 µM | > 100 µM | –
COc1ccc(/C=C/C(=O)c2cccc(N3CCCCC3)c2)c(OC)c1 | > 100 µM | > 100 µM | –
Cc1cc(C)cc(-c2ccc(N3CCNCC3)c(/C=C/C(=O)c3ccc(NCCN(C)C)cc3)c2)c1 | – | – | MIC (Staphylococcus aureus [4]): 2 µM (≈ 0.965 µg/mL)
O=C(O)c1ccc(C(=O)/C=C/c2cc(C(F)(F)F)cc(C(F)(F)F)c2)cc1 | – | – | MIC (Staphylococcus aureus [3]): 2 µM (≈ 0.777 µg/mL)
COc1cc(OC)c(C2CCN(C)CC2)cc1C(=O)/C=C/c1ccccc1Cl (stereo in doubt; 7-140) | – | – | MIC (Staphylococcus aureus [1]): >100 µM
C=CC(C)(C)c1cc(/C=C/C(=O)c2ccc(O)cc2)c(OC)cc1O [LICOAGROCHACONE A] | > 100 µM | 6.3 µM (≈ 2.13 µg/mL) | MIC (Staphylococcus aureus [4]): 18.4 µM (≈ 6.23 µg/mL); hemolysis at 1.5 h, 25 µM [5]: 11.6%; hemolysis at 1.5 h, 300 µM [6]: 47.9%; hemolysis at 1.5 h, 100 µM [2]: 19.9%
CC1(C)S[C@@H]2[C@H](NC(=O)Cc3ccccc3)C(=O)N2[C@H]1C(=O)O [PENICILLIN G] | – | 0.1 µM (≈ 0.0334 µg/mL) | –

Continued, in another order:

MIC (Escherichia coli) | MIC (Staphylococcus aureus [1]; [7]) | Compound | further results
> 100 µM | 50 µM (≈ 20.8 µg/mL) | COc1cc(OC)c(C2CCN(C)CC2)c(O)c1C(=O)/C=C/c1ccccc1Cl | –
> 100 µM | > 100 µM | COc1cc(OC)c(C2CCN(C)CC2)c(O)c1C(=O)/C=C/c1ccccc1F | –
> 100 µM | 50 µM (≈ 20.6 µg/mL) | COc1ccccc1/C=C/C(=O)c1c(OC)cc(OC)c(C2CCN(C)CC2)c1O | –
> 100 µM | > 100 µM | COc1cccc(/C=C/C(=O)c2c(OC)cc(OC)c(C3CCN(C)CC3)c2O)c1 | –
> 100 µM | > 100 µM | COc1cc(OC)c(C2CCN(C)CC2)cc1C(=O)/C=C/c1ccncc1 | –
> 100 µM | 25 µM (≈ 10.6 µg/mL) | COc1cc(OC)c(C2CCN(C)CC2)c(O)c1C(=O)/C=C/c1ccc(N(C)C)cc1 | hemolysis at 1.5 h, 100 µM [2]: 10.3%
> 100 µM | > 100 µM | COc1cc(O)c(C(=O)/C=C/c2ccccc2)cc1C | –
> 100 µM | > 100 µM | COc1ccc(C2CCN(C)CC2)cc1C(=O)/C=C/c1ccccc1Cl | –
> 100 µM | > 100 µM | COc1ccc(C(=O)/C=C/c2ccccc2Cl)c(OC)c1 | –
> 100 µM | > 100 µM | CCN1CCC(c2cc(C(=O)/C=C/c3ccc(N4CCN(C)CC4)cc3)c(OC)cc2OC)CC1 | –
> 100 µM | > 100 µM | COc1cc(OC)c(C2CCN(C)CC2)c(O)c1C(=O)/C=C/c1ccc(C(F)(F)F)cc1 | –
> 100 µM | > 100 µM | COc1cc(OC)c(C2CCN(C)CC2)cc1C(=O)/C=C/c1ccccc1 | –
> 100 µM | 50 µM (≈ 20.6 µg/mL) | COc1ccc(/C=C/C(=O)c2c(OC)cc(OC)c(C3CCN(C)CC3)c2O)cc1 | –
> 100 µM | > 100 µM | COc1ccc(C(=O)/C=C/c2cccnc2)c(OC)c1 | –
> 100 µM | > 100 µM | COc1cc(O)c(C(=O)/C=C/c2ccccc2OC)cc1C | –
> 100 µM | > 100 µM | COc1cc(OC)c(N2CCC(N3CCCCC3)CC2)cc1C(=O)/C=C/c1ccccc1F | –
> 100 µM | 25 µM (≈ 8.17 µg/mL) | O=C(/C=C/c1ccc(Cl)cc1)c1cccc(N2CCNCC2)c1 | hemolysis at 1.5 h, 100 µM [2]: 11.6%
> 100 µM | > 100 µM | COc1cc(O)c(C(=O)/C=C/c2ccc(F)cc2)cc1C1CCN(C)CC1 | –
> 100 µM | > 100 µM | O=C(/C=C/c1ccccc1)c1cccc(N2CCNCC2)c1 | –
> 100 µM | > 100 µM | O=C(/C=C/c1ccccc1Cl)c1cccc(N2CCNCC2)c1 | –
> 100 µM | > 100 µM | O=C(/C=C/c1ccccc1)c1cccc(N2CCCCC2)c1 | –
> 100 µM | > 100 µM | COc1ccc(C(=O)/C=C/c2ccccc2)c(OC)c1 | –
> 100 µM | – | COc1cc(OC)c(C2CCN(C)CC2)cc1C(=O)/C=C/c1ccccc1Cl (stereo in doubt; 1-5) | MIC (Staphylococcus aureus [1]): 25 µM (≈ 10 µg/mL)
> 100 µM | > 100 µM | COc1ccc(C(=O)/C=C/c2ccncc2)c(OC)c1 [DILMEFONE] | –

From ChEMBL document CHEMBL1158169, “Functionalized chalcones with basic functionalities have antibacterial activity against drug sensitive Staphylococcus aureus” (Eur J Med Chem, 2008)
